Laboratory results taken from PubChem BioAssay (NCI).
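Dose response: 5 concentrations. Exposure: 48 h. Format: 96-well plates. Endpoint: linear interpolation; highest concentration if not reached. At the TGI there is no net growth.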

How the values were obtained:
Experiment in all cases: NCI tumour cell line growth inhibition, 48 h
MDA-MB-231 breast = system: MDA-MB-231 breast
LOX IMVI melanoma = system: LOX IMVI melanoma
MDA-MB-435 = system: MDA-MB-435
MOLT-4 leukemia = system: MOLT-4 leukemia
HCC-2998 colon = system: HCC-2998 colon
MALME-3M melanoma = system: MALME-3M melanoma
SR leukemia = system: SR leukemia
RPMI-8226 leukemia = system: RPMI-8226 leukemia
SF-268 CNS = system: SF-268 CNS
A498 renal = system: A498 renal

SMILES	TGI (MDA-MB-231 breast)	TGI (LOX IMVI melanoma)	TGI (MDA-MB-435)	TGI (MOLT-4 leukemia)	TGI (HCC-2998 colon)	TGI (MALME-3M melanoma)	TGI (SR leukemia)	TGI (RPMI-8226 leukemia)	TGI (SF-268 CNS)	TGI (A498 renal)
O=c1[nH]c2ccccc2c(O)c1/C=N/C(=S)NCc1ccccc1	> 100 µM	> 100 µM	> 100 µM	> 100 µM	–	–	–	–	–	–
O=c1cc(NNc2cccc(F)c2)[nH]c(=O)[nH]1	30.4 µM	36.9 µM	–	84.3 µM	> 100 µM	34.9 µM	61.7 µM	47.4 µM	> 100 µM	> 100 µM
C=CC(OC(C)=O)c1ccc(OC(=O)C(C)C)c(OC)c1 (stereo not given)	18.4 µM	5.18 µM	15.6 µM	36.2 µM	29.5 µM	4.43 µM	–	4.28 µM	38.9 µM	31 µM
CCC/C=C1\CCC(CN(C)C)C1=O (stereo not given)	–	20.8 µM	–	12.6 µM	29.5 µM	11.4 µM	8.98 µM	2.75 µM	19.8 µM	23.9 µM
O=C(NC1CCCCC1)c1cc2ccccc2cc1O	> 100 µM	> 100 µM	> 100 µM	–	58.8 µM	–	87.2 µM	46.6 µM	> 100 µM	78.3 µM
NNc1nncc2[nH]cnc12	> 100 µM	–	> 100 µM	> 100 µM	–	–	> 100 µM	> 100 µM	> 100 µM	> 100 µM
COC(=O)[C@H]1NC(=O)CCSSC1(C)C	> 100 µM	> 100 µM	> 100 µM	> 100 µM	–	> 100 µM	–	> 100 µM	> 100 µM	> 100 µM
CCOC(=O)c1c(-c2ccc(Cl)cc2)c(C#N)c(=S)n(C2OC(COC(C)=O)C(OC(C)=O)C(OC(C)=O)C2OC(C)=O)c1-c1ccccc1 (stereo not given)	> 100 µM	> 100 µM	> 100 µM	> 100 µM	> 100 µM	> 100 µM	> 100 µM	> 100 µM	> 100 µM	–
Cc1ccc(-n2cc(-c3ccc(Cl)cc3)c3c(N/N=C4\SCC(=O)N4C)ncnc32)cc1	23.8 µM	> 100 µM	40 µM	> 100 µM	–	9.48 µM	> 100 µM	> 100 µM	> 100 µM	31.3 µM
COc1ccc2c(c1)C/C(=C\c1cccc3ccccc13)C2=O	–	> 100 µM	–	> 100 µM	> 100 µM	–	> 100 µM	> 100 µM	> 100 µM	> 100 µM
Cc1ccc2c(=O)c(C(=O)Nn3c(C)csc3=S)c[nH]c2n1	> 100 µM	> 100 µM	> 100 µM	> 100 µM	–	> 100 µM	–	> 100 µM	> 100 µM	> 100 µM
CCOC(=O)c1cc(I)c(-c2cc(C)no2)n1C	> 100 µM	> 100 µM	> 100 µM	71.6 µM	–	> 100 µM	–	> 100 µM	> 100 µM	> 100 µM
O=S(OC12CC3CC(CC(C3)C1)C2)c1cc(Cl)cc(Cl)c1OCc1ccccc1 (stereo not given)	–	> 100 µM	–	> 100 µM	> 100 µM	> 100 µM	> 100 µM	–	> 100 µM	> 100 µM
O=c1cc(-c2c[nH]c3ccccc23)[nH]c2cc3c(cc12)OCO3	–	> 100 µM	–	> 100 µM	> 100 µM	> 100 µM	> 100 µM	> 100 µM	> 100 µM	> 100 µM
CC1(C)C(CCO)CC1n1cc(I)c(=O)[nH]c1=O (stereo not given)	> 100 µM	> 100 µM	> 100 µM	> 100 µM	> 100 µM	–	–	> 100 µM	> 100 µM	> 100 µM
CCCC(C)n1c(C)nc2c1C(=O)c1ccccc1C2=O (stereo not given)	–	23.6 µM	–	> 100 µM	> 100 µM	67 µM	> 100 µM	–	> 100 µM	–
CC(=O)OC(Cc1ccc2ccccc2n1)(C(F)(F)F)C(F)(F)F	4.12 µM	0.409 µM	3.55 µM	16 µM	7.57 µM	5.21 µM	–	–	7.54 µM	14.6 µM
O=c1oc2ccc([N+](=O)[O-])cc2c(Nc2ccc3c(c2)Sc2ccccc2O3)c1[N+](=O)[O-]	38.8 µM	36.2 µM	85 µM	–	26.4 µM	> 100 µM	55.2 µM	54.2 µM	61.6 µM	–
O=C(c1ccccc1)n1cc(-c2ccccc2)c2c(=O)[nH]cnc21	> 100 µM	> 100 µM	> 100 µM	> 100 µM	> 100 µM	> 100 µM	–	> 100 µM	> 100 µM	> 100 µM
O=[N+]([O-])c1ccccc1S(=O)(=O)c1ccccc1	–	> 100 µM	–	> 100 µM	> 100 µM	> 100 µM	> 100 µM	> 100 µM	> 100 µM	> 100 µM
CC(=O)c1ccccc1NCC(=O)Nn1cnc2ccc(S(=O)(=O)Nc3ccccc3C(C)=O)cc2c1=O	> 100 µM	> 100 µM	> 100 µM	> 100 µM	> 100 µM	> 100 µM	> 100 µM	> 100 µM	> 100 µM	–
Brc1ccc2c3c1[C@H]1O[C@H]1c1cccc(c1-3)[C@@H]1O[C@H]21	40.6 µM	9.39 µM	29.4 µM	> 100 µM	–	33 µM	> 100 µM	–	36.8 µM	41.1 µM
CCOC(=O)c1nc2ccccc2nc1Oc1ccc(C(=O)OC)cc1	> 100 µM	> 100 µM	> 100 µM	> 100 µM	–	> 100 µM	–	> 100 µM	> 100 µM	> 100 µM
COC1CC(OC2C(C)OC(OC3C(C)OC(OC4C(O)CC(O[C@H]5CC[C@@]6(C)C(=CC[C@]7(O)[C@@H]6C[C@@H](OC(C)=O)[C@@]6(C)[C@]7(O)CC[C@@]6(O)C(C)=O)C5)OC4C)CC3OC)CC2OC)OC(C)C1O (stereo not given in full)	> 12.5 µM	> 12.5 µM	> 12.5 µM	> 12.5 µM	> 12.5 µM	> 12.5 µM	> 12.5 µM	> 12.5 µM	> 12.5 µM	–
